Assay results taken from patent US9499550B2 (BRISTOL-MYERS SQUIBB COMPANY, priority 2012, dated 2016).
pEC50: −log10 of the molar value. Where two headings read alike, the source gives them in different places.

How the values were obtained:
[1] = system: HCV genotype 1a (H77 strain) replicon in HUH-7 cells; assay: HCV replicon luciferase reporter assay, genotype 1a; format: cell-based; details: Hepatitis C virus, Huh-7, 72 h, 3 days incubation, read-out: LE_1a (EC50, range)
Outline: (§1)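 Replicon inhibition for both genotypes was measured as Renilla luciferase signal (EnduRen, 7.5 μM final, 2 h) after 3-day, 37° C exposure of replicon-bearing HUH-7 cells in 4% FCS DMEM, 0.5% DMSO. The 1b construct carries S1179I; the 1a H77 construct carries P1496L and S2204I. Twenty-point, 3-fold dilutions were fitted four-parametrically for EC50, and CC50 was taken from multiplexed Cell Titer-Blue.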

[2] = system: HCV genotype 1b (Con1) replicon in HUH-7 cells; assay: HCV replicon luciferase reporter assay, genotype 1b; format: cell-based; details: Hepatitis C virus, Huh-7, 72 h, 3 days incubation, read-out: LE_1b (EC50, range)
Outline: as §1

[3] = HCV genotype 1a replicon luciferase assay, range class
[4] = HCV genotype 1b replicon luciferase assay, range class
[5] = HCV genotype 1a replicon luciferase
[6] = HCV genotype 1b replicon luciferase

## CCCOc1cc2c(Cl)cccc2c(O[C@@H]2C[C@H]3C(=O)N[C@]4(C(=O)NS(=O)(=O)C5(C)CC5)C[C@H]4/C=C\CC[C@@H](C)C[C@@H](C)[C@H](NC(=O)OC(C)(C)C)C(=O)N3C2)n1 [Compound 1072, tert-butyl ((2R,6S,7R,9R,13aS,14aR,16aS,Z)-2-((5-chloro-3-propoxyisoquinolin-1-yl)oxy)-7,9-dimethyl-14a-(((1-methylcyclopropyl)sulfonyl)carbamoyl)-5,16-dioxo-1,2,3,5,6,7,8,9,10,11,13a,14,14a,15,16,16a-hexadecahydrocyclopropa[e]pyrrolo[1,2-a][1,4]diazacyclopentadecin-6-yl)carbamate]
[1]; [3]
  pEC50: > 8.26
[2]; [4]
  pEC50: > 8.26

## COc1ccc2c(O[C@@H]3C[C@H]4C(=O)N[C@]5(C(=O)NS(=O)(=O)C6(CF)CC6)C[C@H]5/C=C\CC[C@@H](C)C[C@@H](C)[C@H](NC(=O)OC(C)(C)C(F)(F)F)C(=O)N4C3)nc3c(c2c1)CCCO3 [Compound 6076, 1,1,1-trifluoro-2-methylpropan-2-yl((2R,6S,7R,9R,13aS,14aR,16aS,Z)-14a-(((1-(fluoromethyl)cyclopropyl)sulfonyl)carbamoyl)-2-((9-methoxy-2,3-dihydro-1H-pyrano[2,3-c]isoquinolin-6-yl)oxy)-7,9-dimethyl-5,16-dioxo-1,2,3,5,6,7,8,9,10,11,13a,14,14a,15,16,16a-hexadecahydrocyclopropa[e]pyrrolo[1,2-a][1,4]diazacyclopentadecin-6-yl)carbamate]
[1]; [5]
  pEC50: 8.30 to 9.00
[2]; [6]
  pEC50: 8.30 to 9.00

## COc1ccc2c(O[C@@H]3C[C@H]4C(=O)N[C@]5(C(=O)NS(=O)(=O)C6CC6)C[C@H]5/C=C\CC[C@H](C)C[C@@H](C)[C@H](NC(=O)OC(C)(C)C(F)(F)F)C(=O)N4C3)nc(-c3ccc(F)cc3)cc2c1 [Compound 3043, 1,1,1-trifluoro-2-methylpropan-2-yl((2R,6S,7R,9S,13aS,14aR,16aS,Z)-14a-((cyclopropylsulfonyl)carbamoyl)-2-((3-(4-fluorophenyl)-6-methoxyisoquinolin-1-yl)oxy)-7,9-dimethyl-5,16-dioxo-1,2,3,5,6,7,8,9,10,11,13a,14,14a,15,16,16a-hexadecahydrocyclopropa[e]pyrrolo[1,2-a][1,4]diazacyclopentadecin-6-yl)carbamate]
[1]; [3]
  pEC50: > 8.26
[2]; [4]
  pEC50: > 8.26

## COc1cnc(O[C@@H]2C[C@H]3C(=O)N[C@]4(C(=O)NS(=O)(=O)C5(CF)CC5)C[C@H]4/C=C\CC[C@H](C)C[C@@H](C)[C@H](NC(=O)OC4(C)CCOC4)C(=O)N3C2)c2ccccc12 (stereo partly drawn) [Compound 1063, 3-methyltetrahydrofuran-3-yl ((2R,6S,7R,9S,13aS,14aR,16aS,Z)-14a-(((1-(fluoromethyl)cyclopropyl)sulfonyl)carbamoyl)-2-((4-methoxyisoquinolin-1-yl)oxy)-7,9-dimethyl-5,16-dioxo-1,2,3,5,6,7,8,9,10,11,13a,14,14a,15,16,16a-hexadecahydrocyclopropa[e]pyrrolo[1,2-a][1,4]diazacyclopentadecin-6-yl)carbamate]
[1]; [3]
  pEC50: 6.99 to 8.32
[2]; [4]
  pEC50: > 8.26

## COc1cc2ccnc(O[C@@H]3C[C@H]4C(=O)N[C@]5(C(=O)NS(=O)(=O)C6(CF)CC6)C[C@H]5/C=C\CC[C@@H](C)C[C@@H](C)[C@H](NC(=O)OC(C)(C)C)C(=O)N4C3)c2cc1OC [Compound 5385, tert-butyl ((2R,6S,7R,9R,13aS,14aR,16aS,Z)-2-((6,7-dimethoxyisoquinolin-1-yl)oxy)-14a-(((1-(fluoromethyl)cyclopropyl)sulfonyl)carbamoyl)-7,9-dimethyl-5,16-dioxo-1,2,3,5,6,7,8,9,10,11,13a,14,14a,15,16,16a-hexadecahydrocyclopropa[e]pyrrolo[1,2-a][1,4]diazacyclopentadecin-6-yl)carbamate]
[1]; [5]
  pEC50: 7.46 to 8.30
[2]; [6]
  pEC50: 8.30 to 9.00

## CC[C@@H]1C[C@H](C)CC/C=C\[C@@H]2C[C@@]2(C(=O)NS(=O)(=O)C2(C)CC2)NC(=O)[C@@H]2C[C@@H](Oc3nccc4c5c(ccc34)N(C)CCO5)CN2C(=O)[C@H]1NC(=O)OC(C)(C)C(F)(F)F [Compound 5326, 1,1,1-trifluoro-2-methylpropan-2-yl((2R,6S,7R,9R,13aS,14aR,16aS,Z)-7-ethyl-9-methyl-2-((4-methyl-3,4-dihydro-2H-[1,4]oxazino[2,3-f]isoquinolin-7-yl)oxy)-14a-(((1-methylcyclopropyl)sulfonyl)carbamoyl)-5,16-dioxo-1,2,3,5,6,7,8,9,10,11,13a,14,14a,15,16,16a-hexadecahydrocyclopropa[e]pyrrolo[1,2-a][1,4]diazacyclopentadecin-6-yl)carbamate]
[1]; [5]
  pEC50: > 8.26
[2]; [6]
  pEC50: > 8.26

## C[C@@H]1CC/C=C\[C@@H]2C[C@@]2(C(=O)NS(=O)(=O)C2CC2)NC(=O)[C@@H]2C[C@@H](Oc3ncc(OCC4CC4)c4ccccc34)CN2C(=O)[C@@H](NC(=O)CC(C)(C)C(F)(F)F)[C@H](C)C1 [Compound 4030]
[1]; [5]
  pEC50: > 8.26
[2]; [6]
  pEC50: > 8.26

## C[C@@H]1CC/C=C\[C@@H]2C[C@@]2(C(=O)NS(=O)(=O)C2CC2)NC(=O)[C@@H]2C[C@@H](Oc3ncc(OCC(F)F)c4ccccc34)CN2C(=O)[C@@H](NC(=O)OC(C)(C)C)[C@H](C)C1 [Compound 1028, tert-butyl ((2R,6S,7R,9R,13aS,14aR,16aS,Z)-14a-((cyclopropylsulfonyl)carbamoyl)-2-((4-(2,2-difluoroethoxyl)isoquinolin-1-yl)oxy)-7,9-dimethyl-5,16-dioxo-1,2,3,5,6,7,8,9,10,11,13a,14,14a,15,16,16a-hexadecahydrocyclopropa[e]pyrrolo[1,2-a][1,4]diazacyclopentadecin-6-yl)carbamate]
[1]; [3]
  pEC50: > 8.26
[2]; [4]
  pEC50: > 8.26

## COc1cnc(O[C@@H]2C[C@H]3C(=O)N[C@]4(C(=O)NS(=O)(=O)C5(CF)CC5)C[C@H]4/C=C\CC[C@@H](C)C[C@@H](C)[C@H](NC(=O)OC4(C(F)(F)F)CCOCC4)C(=O)N3C2)c2ccccc12 [Compound 1048, 4-(trifluoromethyl)tetrahydro-2H-pyran-4-yl((2R,6S,7R,9R,13aS,14aR,16aS,Z)-14a-(((1-(fluoromethyl)cyclopropyl)sulfonyl)carbamoyl)-2-((4-methoxyisoquinolin-1-yl)oxy)-7,9-dimethyl-5,16-dioxo-1,2,3,5,6,7,8,9,10,11,13a,14,14a,15,16,16a-hexadecahydrocyclopropa[e]pyrrolo[1,2-a][1,4]diazacyclopentadecin-6-yl)carbamate]
[1]; [3]
  pEC50: > 8.26
[2]; [4]
  pEC50: > 8.26

## COc1ccc2nc(C)c(O[C@@H]3C[C@H]4C(=O)N[C@]5(C(=O)NS(=O)(=O)C6(CF)CC6)C[C@H]5/C=C\CC[C@@H](C)C[C@@H](C)[C@H](NC(=O)OC(C)(C)C)C(=O)N4C3)nc2c1 [Compound 4222, tert-butyl (2R,6S,7R,9R,13aS,14aR,16aS,Z)-14a-(1-(fluoromethyl)cyclopropylsulfonylcarbamoyl)-2-(7-methoxy-3-methylquinoxalin-2-yloxy)-7,9-dimethyl-5,16-dioxo-1,2,3,5,6,7,8,9,10,11,13a,14,14a,15,16,16a-hexadecahydrocyclopropa[e]pyrrolo[1,2-a][1,4]diazacyclopentadecin-6-ylcarbamate]
[1]; [5]
  pEC50: > 8.26
[2]; [6]
  pEC50: > 8.26

## CCOc1ccc2c(O[C@@H]3C[C@H]4C(=O)N[C@]5(C(=O)NS(=O)(=O)C6(C)CC6)C[C@H]5/C=C\CC[C@@H](C)C[C@@H](CC)[C@H](NC(=O)OC(C)(C)C(F)(F)F)C(=O)N4C3)nccc2c1 [Compound 5369, 1,1,1-trifluoro-2-methylpropan-2-yl((2R,6S,7R,9R,13aS,14aR,16aS,Z)-2-((6-ethoxyisoquinolin-1-yl)oxy)-7-ethyl-9-methyl-14a-(((1-methylcyclopropyl)sulfonyl)carbamoyl)-5,16-dioxo-1,2,3,5,6,7,8,9,10,11,13a,14,14a,15,16,16a-hexadecahydrocyclopropa[e]pyrrolo[1,2-a][1,4]diazacyclopentadecin-6-yl)carbamate]
[1]; [5]
  pEC50: 8.30 to 9.00
[2]; [6]
  pEC50: 8.30 to 9.00

## C[C@H]1CC/C=C\[C@@H]2C[C@@]2(C(=O)NS(=O)(=O)C2CC2)NC(=O)[C@@H]2C[C@@H](Oc3nccc4c5c(ccc34)OCCO5)CN2C(=O)[C@@H](NC(=O)OC(C)(C)C(F)(F)F)[C@H](C)C1 [Compound 5258, 1,1,1-trifluoro-2-methylpropan-2-yl((2R,6S,7R,9S,13aS,14aR,16aS,Z)-14a-((cyclopropylsulfonyl)carbamoyl)-2-((2,3-dihydro-[1,4]dioxino[2,3-f]isoquinolin-7-yl)oxy)-7,9-dimethyl-5,16-dioxo-1,2,3,5,6,7,8,9,10,11,13a,14,14a,15,16,16a-hexadecahydrocyclopropa[e]pyrrolo[1,2-a][1,4]diazacyclopentadecin-6-yl)carbamate]
[1]; [5]
  pEC50: 6.99 to 8.32
[2]; [6]
  pEC50: > 8.26

## COc1ccc2c(O[C@@H]3C[C@H]4C(=O)N[C@]5(C(=O)NS(=O)(=O)C6(CF)CC6)C[C@H]5/C=C\CC[C@@H](C)C[C@@H](C)[C@H](NC(=O)OC(C)(C)C)C(=O)N4C3)nc(Cl)cc2c1 [Compound 1163, tert-butyl ((2R,6S,7R,9R,13aS,14aR,16aS,Z)-2-((3-chloro-6-methoxyisoquinolin-1-yl)oxy)-14a-(((1-(fluoromethyl)cyclopropyl)sulfonyl)carbamoyl)-7,9-dimethyl-5,16-dioxo-1,2,3,5,6,7,8,9,10,11,13a,14,14a,15,16,16a-hexadecahydrocyclopropa[e]pyrrolo[1,2-a][1,4]diazacyclopentadecin-6-yl)carbamate]
[1]; [3]
  pEC50: > 8.26
[2]; [4]
  pEC50: > 8.26
